Test results: US8334316B2, “Substituted organosulfur compounds and methods of using thereof” (ACEA Biosciences, Inc., priority 2004, dated 2012)

Key:
[1] = tested on: mouse Lewis lung cancer; assay: In vivo antitumor efficacy, mouse Lewis lung cancer model (subcutaneously transplanted), Example 1
Description: Test controls. For the negative control, two groups were set up: the solvent only control group and normal saline control group. […] In the normal saline group, each mouse was administered with 0.5 ml of normal saline, once per day and for 7 or 10 consecutive days. For the positive control group, the anticancer compound, cyclophosphamide (CTX) was administered intraperitoneally at 30 mg/kg, once per day and for 7 or 10 consecutive days.
In the mouse Lewis lung cancer model, 200 mg of DBTS was dissolved in 5 mL castor oil (in polyoxyethlated version). […] The intravenous injection speed was about 0.5 mL/0.5 min.
The dosages and administration of test compounds are within the knowledge of those commonly skilled in pharmacology. For example, the test compounds may be administered by intravenous injection with a test compound solution twice per day and for 7 consecutive days. Alternatively, the test compounds may be administered by intravenous injection with a test compound solution once per day and for 10 consecutive days.
0.2 mL of the tumor cell suspension (between 4 and 8 million tumor cells) was then transplanted back into an experimental mouse by subcutaneous injection. […] Each removed solid tumor was weighted, and the tumor inhibition rate in the DBTS-treated groups and in the CTX-treated group was calculated according to the formula: Tumor inhibition rate %=(average weight of tumor in the negative control group−average weight of tumor in the compound treated group)/average weight of tumor in the negative control group×100 (2)
For the mouse Lewis lung cancer model, the Lewis lung cancer cells were subcutaneously transplanted at approximately 5 million cells per mouse. After 24 hours of the transplantation, each mouse in the test group was administered intravenously with dibenzyl trisulfide at 50, 25, or 12.5 mg/kg per day and for 10 consecutive days. For the positive control group, each mouse was administered with CTX at […] intraperitoneally per day and for 10 consecutive days. For the negative control group, each mouse was administered intravenously either with normal saline, or with the solvent for dibenzyl trisulfide at the same concentration as that in the test group per day and for consecutive 10 days. For each group, 10 mice were used.

[2] = tested on: mouse Lewis lung cancer; assay: In vivo antitumor efficacy, mouse Lewis lung cancer model, Example 2 (DBTS, CTX, Taxol reference); conditions: 30 mg/kg/d ip x7 qd
[3] = tested on: mouse sarcoma S180; assay: In vivo antitumor efficacy, mouse sarcoma S180 model (subcutaneously transplanted), Example 1; conditions: 30 mg/kg/d ip x7 qd
[4] = tested on: P388 lymphocytic leukemia; assay: Murine P388 lymphocytic leukemia model (intraperitoneal transplantation), life span; type: in vivo, mouse; conditions: 2 mg/kg/d iv x7 qd
Description: Both male and female mice were used.
Preparation and Administration of Test Compounds.
To prepare cancer cells for the P388 murine lymphocytic leukemia model, ascites of a P388 leukemia-bearing mouse were removed under sterile condition. The ascites were diluted in normal saline (1:6 for ascites to normal saline) to prepare cell suspension. 0.2 mL of the cell suspension was then injected intraperitoneally. […] The life span of carrier mice was determined within 30 days. The life span ratio comparing to the negative control group of the carrier mice in each compound treatment group was calculated according to the formula: Life span ratio %=average life span for the compound treatment group/average life span for the negative control group×100% (4)

[5] = tested on: microtubules in COS cells; assay: Microtubule network in cultured COS cells (anti-tubulin immunofluorescence, confocal microscopy); type: cell-based
Description: Cell Culture and Immunocytochemistry. COS cells were grown in DMEM media supplemented with non-essential amino acids, 10% FBS, antibiotic-antimycotic (Gibco BRL) at 37° C. and 5.5% CO2. […] Cells were then rinsed once with warm PBS, fixed with cold methanol, rinsed again in PBS and blocked overnight at 4° C. in PBT (PBS, 1% BSA, 0.5% Triton X-100). All subsequent stains and washes were done in PBT at room temperature unless stated otherwise. Cells were stained with the anti-tubulin mouse antibody DM-1 at 1:1000 for 1 hour, washed four times for 15 minutes each and then treated with Cy-3 conjugated goat anti mouse antibody at 1:100 for 1 hour in the dark. Next, samples were washed four times for 15 minutes each in PBT in the dark followed by a final 15 minute wash in PBS in the dark. Samples were then viewed by laser scanning confocal microscopy.

[6] = tested on: A549 human lung cancer cells; assay: Apoptosis: Annexin V-Cy3 / 6-CFDA staining of A549 cells; type: cell-based; conditions: 10 nM, 24 hrs
Description: The cells were incubated with the drugs for 24 hours and then washed 2× with PBS and 3× with binding buffer (10 mM HEPES, pH 7.5, 140 mM NaCl, 2.5 mM CaCl2). […] The cells were gently washed 3× in 1× binding buffer, mounted, viewed under immunofluorescent microscope and imaged using an attached CCD camera. Note that live cells show staining only with 6-CFDA (green), while necrotic cells will stain only with Annexin V-Cy3 (red). Cells starting the apoptotic process will stain both with AnnexinV-Cy3 and 6-CFDA.

[7] = tested on: A431 cells (human epidermoid cancer cells); assay: RT-CES system cell proliferation, A431; type: cell-based; conditions: FIG. 6B
Description: A431 cells (human epidermoid cancer cells) were seeded into wells of microtiter plate devices (electronic plates, i.e., the plates comprise microelectrode sensor arrays in the wells of the plate) with an initial seeding density of 10,000 cells per well and were pre-incubated in incubator under standard cell culture conditions for about 22.3 hrs. Various concentrations of DBTS and 5-fluorouracil solutions were added into wells following the incubation period. The cell status was monitored prior to and after the compound addition using RT-CES system.

[8] = tested on: HELA cells; assay: Inhibition of cancer cell proliferation, IC50 of ACEA100129 (RT-CES or MTT, not specified), HELA; type: cell-based; conditions: Homo sapiens
Description: (§1) The anticancer potency of DBTS and its derivatives were tested in 8 different types of human cancer cell lines using the RT-CES system and MTT assay. The 8 cancer cell lines were HT1080 (the human fibrosarcoma cell line), H460 (human non small cell lung cancer cell line), OVCAR4 (the human ovarian cancer cell line), MCF7 (human breast cancer cell line) MDA-MB231 (M231, the human breast cancer cell line) A2780 (the human […] cancer cell line) Jurkat (the human T cell leukemia cell line). The test DBTS derivatives include ACEA100107, ACEA100108, ACEA100109, ACEA100111, ACEA100115, ACEA100116, ACEA100117, ACEA100118, ACEA100119, and ACEA100120.
(§2) For the assay performed on the RT-CES system, the cells were seeded into the 16× or 96× microtiter plate devices (electronic plates, i.e., the plates comprise microelectrode sensor arrays in the wells of the plate) at the seeding density ranging from 5000 cells/well to 15,000 cells/well. The cells were incubated at 5% CO2 and 37° C. for overnight till the cell indices reached the growth phase where the cell index was between 0.8 and 1.2. […] The time-dependent IC50 values for each derivative were calculated based the dose responses of cell index value at different time points after compound treatment. […]

[9] = tested on: MCF7 cells; assay: Inhibition of cancer cell proliferation, IC50 of ACEA100129 (RT-CES or MTT, not specified), MCF7; type: cell-based; conditions: Homo sapiens
Description: as §1, §2

[10] = tested on: HT1080 cells; assay: Inhibition of cancer cell proliferation, IC50 of ACEA100129 (RT-CES or MTT, not specified), HT1080; type: cell-based; conditions: Homo sapiens, HT-1080
Description: as §1, §2

`O=P1(N(CCCl)CCCl)NCCCO1` (centres unmarked) [CTX, cyclophosphamide, reference compound] was tested, and the “Animal weight (g) beginning” value ([1]; 30 mg/kg/d ip) was 19.1 g, the “Animal weight (g) end” value ([1]; 30 mg/kg/d ip) was 20.2 g and the “Inhibition rate (%)” value ([1]; 30 mg/kg/d ip x7 qd, vs 5% solvent control) was 85.83%. The “Inhibition rate (%)” value ([1]; 30 mg/kg/d ip x10 qd, vs normal saline control) was 87.62%, the “Animal weight (g) beginning” value [2] was 21.1 g and the “Animal weight (g) end” value [2] was 22.3 g. For the same compound, the “Tumor weight” value [2] was 0.258 ± 0.09 g, the “tumor inhibition rate %” value ([2]; vs normal saline control) was 90.75% and the “Animal weight (g) beginning” value [3] was 19.6 g. The “Animal weight (g) end” value [3] was 20.3 g, the “Inhibition rate (%)” value ([3]; vs 10% solvent control) was 88.83% and the “Inhibition rate (%)” value ([3]; vs normal saline control) was 91.76%.
For `CO[C@@]12[C@H](COC(N)=O)C3=C(C(=O)C(C)=C(N)C3=O)N1C[C@@H]1N[C@@H]12` [MMC, mitomycin C, reference compound], the “Beginning animal weight” value [4] was 20.6 g, the “animal No. beginning/end (survivors)” value [4] was 10/1 and the “Average life span X ± SD” value ([4]; observed within 30 days) was 18.1 ± 0.15. For the same compound, the “Life span ratio %” value ([4]; vs solvent control) was 186.59%.
For `CC[C@]1(O)C[C@@H]2CN(CCc3c([nH]c4ccccc34)[C@@](C(=O)OC)(c3cc4c(cc3OC)N(C)[C@H]3[C@@](O)(C(=O)OC)[C@H](OC(C)=O)[C@]5(CC)C=CCN6CC[C@]43[C@@H]65)C2)C1` [vinblastine, reference compound], the Microtubule network appearance ([5]; 4 hours exposure) was “the microtubule network begins to fall apart and the microtubules become much shorter”, the Microtubule network appearance ([5]; 24 hours exposure, increasing dosage) was “major cell abnormalities are widespread in the microtubule network” and the “Annexin V staining (apoptosis)” value [6] was “strong staining of Annexin V”.
`O=c1[nH]cc(F)c(=O)[nH]1` [5-fluorouracil] was tested, and the “Concentration showing inhibitory ability against proliferation” value [7] was at least 12.5 µM.
Compound `Cc1ccc(CSSSCc2ccc(C)cc2)cc1` [ACEA100129, Di(p-methylbenzyl)trisulfide] has an IC50 [8] of 0.42 µM, an IC50 [9] of 2.3 µM and an IC50 [10] of 0.82 µM.
